What was measured:
[1] = system: spontaneously hypertensive rats; assay: Antihypertensive activity in spontaneously hypertensive rats (SHR), tail cuff systolic blood pressure; type: in vivo; settings: for average reduction of the SBP: 1 h after administration, significantly different from control
Method: In this recognized model of hypertension, male spontaneously hypertensive rats (315 to 376 g) with systolic blood pressures (SBP) >160 mm Hg were used. Systolic blood pressures were recorded on conscious animals by a tail cuff method (FS-40 blood pressure/pulse monitor). Prior to all measurements, the rats were placed in a restraining cylinder. […] The pressures were monitored again 1, 2, 3, 4 and 24 h after administration of the test compounds. A control group (n=18) was included for comparison purposes.

[2] = system: Angiotensin I-Induced Contractions in Guinea-Pig Ileum; assay: Inhibition of Angiotensin I-induced contractions in guinea-pig ileum; settings: final bath concentration 10 ng/ml; Angiotensin I 100 ng/ml; compound added 2 min before agonist; average of ilea from 5 guinea-pigs
Method: Segments of 1.5 cm of freshly excised and washed terminal ileum were suspended in 25-ml tissue baths containing Tyrode's solution at 31° C. and bubbled with 95% O2 -5% CO2. With an initial load of 1.0 g, the resting tension after equilibration and the responses to Angiotensin I or Angiotensin II (both at 100 ng/ml) were monitored and recorded by means of an Ealing isometric transducer and a Lectromed polygraph. Several compounds of this invention were tested in this system, adding them to the bath 2 min. before the respective agonist.
At final bath concentrations of 10 ng/ml, the inhibitory effect of the tested compounds regarding the Angiotensin I-induced contractions was determined. The obtained results are given in Table I. All % inhibitions given therein are the average of results obtained with segments of ilea from 5 guinea-pigs. At final bath concentrations of 1 μg/ml none of the tested compounds produced an appreciable modification of the contractions induced by Angiotensin II.

[3] = oral 30 mg/kg, after 2, 3, 4 and 24 h, Duncan-Kramer test, p<0.05

C[C@H](CS)C(=O)N1CCC[C@H]1C(=O)O [Captopril, D-3-mercapto-2-methylpropanoyl-L-proline, reference compound]
average reduction of the SBP ([1]; oral 30 mg/kg): 17.2±8.49 mm Hg
SBP reduction versus control ([1]; oral 30 mg/kg, after 24 h): inactive
% Inhibition of Angiotensin I-induced contractions [2]: 28.9%

CCOC(=O)c1cccc(C(=O)N[C@@H](C)C(=O)N2CCC[C@H]2C(=O)OCC)n1 [Compound No. 8, N-[(2-Ethoxycarbonyl-6-pyridinyl)carbonyl]-L-alanyl-L-proline ethyl ester]
average reduction of the SBP ([1]; oral 30 mg/kg): 32.6±7.49 mm Hg
SBP reduction versus control [1, 3]: significantly different from the control
antihypertensive effect ([1]; oral 30 mg/kg, overall): significant antihypertensive effect
antihypertensive effect ([1]; oral doses of 7.5 and 15 mg/kg): Antihypertensive effects were also observed

CCOC(=O)[C@@H]1CCCN1C(=O)[C@H](C)NC(=O)c1ccc[nH]c1=O [Compound No. 21, N-[(1,2-Dihydro-2-oxo-3-pyridinyl)carbonyl]-L-alanyl-L-prolineethyl ester]
SBP reduction, time course ([1]; oral 30 mg/kg, monitored 1, 2, 3, 4 and 24 h): significant reduction only after 2 h
antihypertensive effect ([1]; oral 30 mg/kg, overall): significant antihypertensive effect
SBP reduction ([1]; oral 45 mg/kg, after 2, 3, 4 and 24 h): significant
% Inhibition of Angiotensin I-induced contractions [2]: 30.7%

C[C@H](NC(=O)c1cccc(Cl)n1)C(=O)N1CCC[C@H]1C(=O)O [Compound No. 24, N-[(6-Chloro-2-pyridinyl)carbonyl]-L-atanyl-L-proline]
% Inhibition of Angiotensin I-induced contractions [2]: 20.6%

C[C@H](NC(=O)c1cc[nH]c(=S)c1)C(=O)N1CCC[C@H]1C(=O)O [Compound No. 27, N-[(1,2-dihydro-2-thioxo-4-pyridinyl)carbonyl]-L-alanyl-L-proline]
average reduction of the SBP ([1]; oral 30 mg/kg): 28.4±3.16 mm Hg
SBP reduction versus control [1, 3]: significantly different from the control
antihypertensive effect ([1]; oral 30 mg/kg, overall): significant antihypertensive effect
antihypertensive effect ([1]; oral doses of 7.5 and 15 mg/kg): Antihypertensive effects were also observed
% Inhibition of Angiotensin I-induced contractions [2]: 18.1%

C[C@H](NC(=O)c1ccc(=S)[nH]c1)C(=O)N1CCC[C@H]1C(=O)O [Compound No. 29, N-[(1,6-dihydro-6-thioxo-3-pyridinyl)carbonyl]-L-alanyl-L-proline]
% Inhibition of Angiotensin I-induced contractions [2]: 16.2%

C[C@H](NC(=O)c1ccc(=O)[nH]c1)C(=O)N1CCC[C@H]1C(=O)O [Compound No. 35, N-[(1,6-dihydro-6-oxo-3-pyridinyl)carbonyl]-L-alanyl-L-proline]
% Inhibition of Angiotensin I-induced contractions [2]: 16.0%

Source: patent US5432159A, “N-(α-substituted-pyridinyl)carbonyl dipeptide antihypertensive agents” (Lacer S.A., priority 1991, dated 1995)
